Test results taken from patent US11286268B1, “EIF4E-inhibiting compounds and methods” (EFFECTOR THERAPEUTICS, INC., priority 2019, dated 2022).
Read-outs that look alike come from different tables or passages of the source.

Target: recombinant eIF4E (Homo sapiens (Human), UniProt P06730)
Assay: Fluorescence polarization competition assay for eIF4E binding potency
Summary of the method: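 Protein and fluorescent cap-analog probe (EDA-m7GDP-ATTO-550) were mixed first for 5 min, after which serially diluted compound was added to final 75 nM eIF4E, 20 nM probe, 1% DMSO. Reactions equilibrated 30 min at room temperature before polarization was measured.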

[1] = fluorescence polarization competition, 75 nM recombinant eIF4E, 20 nM EDA-m7GDP-ATTO-550, IC50 class, read-out: elF4E FP
[2] = inhibition of eIF4E/EDA-m7GDP-ATTO-550 binding by 50%, Table 4B calculated values, read-out: IC50

Sequence of recombinant eIF4E (P06730 whole entry): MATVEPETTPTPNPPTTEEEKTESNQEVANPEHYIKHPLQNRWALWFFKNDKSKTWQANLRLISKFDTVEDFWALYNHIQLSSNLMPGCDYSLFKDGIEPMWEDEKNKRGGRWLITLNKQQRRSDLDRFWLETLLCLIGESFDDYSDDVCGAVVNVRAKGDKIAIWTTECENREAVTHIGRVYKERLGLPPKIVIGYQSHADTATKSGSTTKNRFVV

Row | IC50 [1] [nM] | IC50 [2] [nM] | SMILES
1 | < 50 | 2 | Cc1nc2cc(C(F)(F)F)cc(C#N)c2c(=O)n1CCOc1ccc(Cl)cc1-c1ccnc2c(C(=O)NS(C)(=O)=O)csc12 [compound 569]
2 | < 50 | 5.57 | CC(=O)NS(=O)(=O)c1csc2c(-c3cc(Cl)ccc3OCCn3c(C)nc4c(F)cc(C(F)F)c(C#N)c4c3=O)cc(C)nc12 [compound 570]
3 | 50 to 1000 | 54.8 | Cc1cc(-c2cc(Cl)c(F)cc2OCCn2c(C)nc3cc(C(F)(F)F)cc(C#N)c3c2=O)c2scc(C(=O)O)c2n1 [compound 571]
4 | < 50 | 30.6 | Cc1ccc2nc(C)n(CCOc3ccc(Cl)cc3-c3ccnc4c(C(=O)O)csc34)c(=O)c2c1C#N [compound 572]
5 | 50 to 1000 | 54.7 | Cc1cc(C#N)c2c(=O)n(CCOc3ccc(Cl)cc3-c3ccnc4c(C(=O)O)csc34)c(C)nc2c1 [compound 573]
6 | 50 to 1000 | 57.5 | Cc1ccc(C#N)c2c(=O)n(CCOc3ccc(Cl)cc3-c3ccnc4c(C(=O)O)csc34)c(C)nc12 [compound 574]
7 | < 50 | 25.7 | Cc1nc2ccc(CCN(C)C)c(C#N)c2c(=O)n1CCOc1ccc(Cl)cc1-c1cc(OC(F)F)nc2c(C(=O)O)csc12 [compound 575]
8 | < 50 | 17.7 | Cc1ccc(-c2cc(Cl)ccc2OCCn2c(C)nc3ccc(CCN(C)C)c(C#N)c3c2=O)c2scc(C(=O)O)c12 [compound 576]
9 | < 50 | 39.4 | Cc1nc2ccc(CCN(C)C)c(C#N)c2c(=O)n1CCOc1ccc(Cl)cc1-c1ccc(C(F)F)c2c(C(=O)O)csc12 [compound 577]
10 | < 50 | 32 | Cc1nc2ccc(CCN(C)C)c(C#N)c2c(=O)n1CCOc1ccc(Cl)cc1-c1ccc(C(F)(F)F)c2c(C(=O)O)csc12 [compound 578]
11 | < 50 | 30.2 | Cc1cc(-c2cc(Cl)ccc2OCCn2c(C)nc3cc(OC(F)F)cc(C#N)c3c2=O)c2scc(C(=O)O)c2n1 [compound 579]
12 | < 50 | 24.2 | Cc1cc(-c2cc(Cl)ccc2OCCn2c(C)nc3cc(OC(F)F)cc(C#N)c3c2=O)c2scc(C(=O)NS(C)(=O)=O)c2n1 [compound 580]
13 | < 50 | 12.7 | Cc1cc(-c2cc(Cl)ccc2OCCn2c(C)nc3cc(Cl)c(Cl)c(C#N)c3c2=O)c2scc(C(=O)O)c2n1 [compound 582]
14 | < 50 | 15.9 | Cc1cc(-c2cc(Cl)ccc2OCCn2c(C)nc3ccc(OC(F)(F)F)c(C#N)c3c2=O)c2scc(C(=O)O)c2n1 [compound 583]
15 | < 50 | 23.5 | Cc1cc(-c2cc(Cl)ccc2OCCn2c(C)nc3ccc(CCN(C)C)c(C#N)c3c2=O)c2scc(C(=O)O)c2n1 [compound 584]
16 | < 50 | 29.6 | Cc1cc(-c2cc(Cl)ccc2OCCn2c(C)nc3cc(OC(F)F)c(F)c(C#N)c3c2=O)c2scc(C(=O)O)c2n1 [compound 585]
17 | < 50 | 50 | Cc1cc(-c2cc(Cl)ccc2OCCn2c(C)nc3cc(Cl)c(C(F)F)c(C#N)c3c2=O)c2scc(C(=O)O)c2n1 [compound 586]
18 | < 50 | 25.5 | Cc1cc(-c2cc(Cl)ccc2OCCn2c(C)nc3c(F)cc(C(F)F)c(C#N)c3c2=O)c2scc(C(=O)O)c2n1 [compound 587]
19 | < 50 | 49.3 | Cc1cc(-c2cc(Cl)ccc2OCCn2c(C)nc3c(F)cc(Cl)c(C#N)c3c2=O)c2scc(C(=O)O)c2n1 [compound 588]
20 | < 50 | 4.45 | Cc1cc(-c2cc(Cl)ccc2OCCn2c(C)nc3c(F)c(C(F)(F)F)cc(C#N)c3c2=O)c2scc(C(=O)O)c2n1 [compound 589]

Row | IC50 [1] [nM] | IC50 [2] [nM] | SMILES
21 | < 50 | 2.26 | Cc1nc2cc(C(F)(F)F)cc(C#N)c2c(=O)n1CCOc1ccc(Cl)cc1-c1cn(C)c(=O)c2c(C(=O)O)csc12 [compound 590]
22 | < 50 | 44.9 | CCc1sc2c(-c3cc(Cl)ccc3OCCn3c(C)nc4cc(C(F)(F)F)cc(C#N)c4c3=O)ccnc2c1C(=O)O [compound 591]
23 | < 50 | 10.3 | Cc1cc(-c2cc(Cl)ccc2OCCn2c(C)nc3cc(OC(F)F)c(CCN(C)C)c(C#N)c3c2=O)c2scc(C(=O)O)c2n1 [compound 592]
24 | < 50 | 32.9 | Cc1cc(-c2cc(Cl)ccc2OCCn2c(C)nc3c(F)cc(C(F)F)c(C#N)c3c2=O)c2scc(C(=O)NS(=O)(=O)C(F)(F)F)c2n1 [compound 593]
25 | > 1000 | 1350 | Cc1cc(-c2cc(Cl)ccc2OCCn2c(C)nc3c(F)cc(C(F)F)c(C#N)c3c2=O)c2scc(C(=O)NC(=O)N(C)C)c2n1 [compound 594]
26 | < 50 | 24.8 | C=C1c2c(C#N)cc(C(F)(F)F)cc2N=C(C)N1CCOc1ccc(Cl)cc1-c1cc(CCO)nc2c(C(=O)O)csc12 [compound 595]
27 | < 50 | 37.7 | Cc1cc(-c2cc(Cl)ccc2OCCn2c(C)nc3cnc(C#N)cc3c2=O)c2scc(C(=O)O)c2n1 [compound 596]
28 | < 50 | 46.8 | Cc1cc(-c2cc(Cl)ccc2OCCn2c(C)nc3cncc(C#N)c3c2=O)c2scc(C(=O)O)c2n1 [compound 597]
29 | 50 to 1000 | 57.2 | Cc1cc(-c2cc(Cl)ccc2OCCn2c(C)nc3cnc(C#N)cc3c2=O)c2scc(C(=O)NS(C)(=O)=O)c2n1 [compound 598]
30 | 50 to 1000 | 61.6 | Cc1cc(-c2cc(Cl)ccc2C#CCn2c(C)nc3cnc(C#N)cc3c2=O)c2scc(C(=O)O)c2n1 [compound 599]
31 | < 50 | 14.2 | Cc1cc(-c2cc(Cl)ccc2OCCn2c(C)nc3cncc(C#N)c3c2=O)c2scc(C(=O)NS(C)(=O)=O)c2n1 [compound 600]
32 | 50 to 1000 | 52 | Cc1cc(-c2cc(Cl)ccc2C#CCn2c(C)nc3cncc(C#N)c3c2=O)c2scc(C(=O)O)c2n1 [compound 601]
33 | < 50 | 10.2 | Cc1cc(-c2cc(Cl)ccc2OCCn2c(C)nc3cnc(OC(F)F)c(C#N)c3c2=O)c2scc(C(=O)O)c2n1 [compound 602]
34 | < 50 | 11.7 | Cc1nc(N2CCN(C)C3CC32)c(C#N)c2c(=O)n(CCOc3ccc(Cl)cc3-c3ccnc4c(C(=O)O)csc34)c(C)nc12 (centres unmarked) [compound 603]
35 | 50 to 1000 | 70.7 | Cc1cc(-c2cc(Cl)ccc2OCCn2c(C)nc3c(OC(F)F)ncc(C#N)c3c2=O)c2scc(C(=O)O)c2n1 [compound 604]
36 | < 50 | 4.12 | Cc1cc(-c2cc(Cl)ccc2OCCn2c(C)nc3cc(CCCN(C)C)c(Cl)c(C#N)c3c2=O)c2scc(C(=O)O)c2n1 [compound 606]
37 | < 50 | 5.5 | Cc1cc(-c2cc(Cl)ccc2OCCn2c(C)nc3cc(CCN(C)C)c(OC(F)F)c(C#N)c3c2=O)c2scc(C(=O)O)c2n1 [compound 607]
38 | < 50 | 18.6 | Cc1cc(-c2cc(Cl)ccc2OCCn2c(C)nc3c(F)cc(CCN(C)C)c(C#N)c3c2=O)c2scc(C(=O)O)c2n1 [compound 608]
39 | < 50 | 33.1 | Cc1cc(-c2cc(Cl)ccc2OCCn2c(C)nc3cc(Cl)c(CCN(C)C)c(C#N)c3c2=O)c2scc(C(=O)O)c2n1 [compound 609]
40 | < 50 | 13.9 | Cc1cc(-c2cc(Cl)ccc2OCCn2c(C)nc3cc(C(F)(F)F)c(CCN(C)C)c(C#N)c3c2=O)c2scc(C(=O)O)c2n1 [compound 610]
